The subject of series [1] is HIV-1 92BR025 (subtype C clinical isolate). The experiment in a line: Anti-HIV efficacy in human PBMCs, isolate 92BR025. The class given is cell-based. The procedure: (§1) HIV human peripheral blood mononuclear cell (PBMC) assays were performed as described previously (Lanier et al., 2010, Antimicrob. Agents Chemother. 54:2901-09; Ptak et al., 2008, Antimicrob. Agents Chemother. 52:1302-17). Briefly, fresh PBMCs, seronegative for HIV and hepatitis B virus (HBV), were isolated from blood samples of the screened donors (Biological Specialty Corporation, Colmar, Pa.) by using lymphocyte separation medium (LSM; density, 1.078±0.002 g/ml; Cellgro; Mediatech, Inc.) by following the manufacturer's instructions. Cells were stimulated by incubation in 4 μg/mL phytohemagglutinin (PHA; Sigma) for 48 to 72 h. Mitogenic stimulation was maintained by the addition of 20 U/mL recombinant human interleukin-2 (rhIL-2; R&D Systems, Inc.) to the culture medium. PHA-stimulated PBMCs from at least two donors were pooled, diluted in fresh medium, and added to 96-well plates at 5×10^4 cells/well. Cells were infected (final multiplicity of infection [MOI] of ≅0.1) in the presence of 9 different concentrations of test compounds (triplicate wells/concentration) and incubated for 7 days. […] Following removal of supernatant samples, compound cytotoxicity was measured by the addition of 3-(4,5-dimethylthiazol-2-yl)-5-(3-carboxymethoxyphenyl)-2-(4-sulfophenyl)-2H-tetrazolium (MTS; CellTiter 96 reagent; Promega) by following the manufacturer's instructions. […]

For series [2], the system named is HIV-1 93IN101 (subtype C clinical isolate). The experiment in a line: Anti-HIV efficacy in human PBMCs, isolate 93IN101. Type of series: cell-based. The method, then: as §1
Series [3] deals with HIV-1 93BR020 (subtype F clinical isolate). The experiment in a line: Anti-HIV efficacy in human PBMCs, isolate 93BR020. The class given is cell-based. The procedure:
as §1

Another series addresses HIV-1 CA (Human immunodeficiency virus type 1 group M subtype B, UniProt P12493). Description: In vitro CA assembly assay (turbidity). The class given is biochemical. The settings on record: CA 30 μM; compound 147 μM; turbidity at 350 nm. The procedure:
The effect of compound CMPD-E on the assembly of HIV-1 CA was measured by monitoring turbidity at 350 nm using a modification of the method of Tian et al. (Tian et al., 2009, Bioorg. Med. Chem. Lett. 19:2162-67). Briefly, 1.0 μL of concentrated CMPD-E in 100% DMSO was added to a 74-μL aqueous solution (2 mL of 5 M NaCl mixed with 1 mL of 200 mM NaH2PO4, pH 8.0). To initiate the assembly reaction, 25 μL of purified CA protein (120 μM) was added. An identical reaction mixture was prepared, omitting the compound (i.e., DMSO only). Samples were allowed to equilibrate for 2 min prior to reading. Readings were taken at 350 nm every 10 s for 30 min. CA was used at a final concentration of 30 μM, and CMPD-E at a final concentration of 147 μM.

The test system of the next series is RSV. The experiment in a line: CPE assay, RSV. The class given is cell-based, respiratory syncytial virus.
A short description of a further series: in vitro. The settings on record: African green monkey.
Series [4] relates to recombinant luciferase-expressing HIV-1 bearing the envelope glycoprotein of the HIV-1YU-2 strain. Description: Single-round infection assay, HIV-1 with YU-2 envelope on Cf2Th-CCR5 cells.
Where [5] appears, read: Human immunodeficiency virus 1, PBMC.

Entries after “also recorded” stand apart in the source; their conditions may differ. Where only a bound is given, the exact number is not on record here.

With `O=C(O)c1ccc(-c2nc(-c3ccccc3)c(-c3ccccc3)[nH]2)cc1` [CMPD-E, 4-(4,5-diphenyl-1H-imidazol-2-yl)benzoic acid], the IC50 in series [1] (setting [5]) was 51 µM; in series [2] (setting [5]), 48.4 µM; in series [3] (setting [5]) it was 65.6 µM; in the series on RSV (human respiratory syncytial virus, RSV, Vero cells), greater than 100 µM; in series [4] (Human immunodeficiency virus 1, Cf2Th-CCR5, read-out: IC50 against HIV-1 (single-round infection)), 22.5 ± 1.1 µM. In addition, the “Antiviral index (TC50/IC50)” value is given as greater than 1.96 in series [1] (PBMC), greater than 2.07 in series [2] (PBMC) and greater than 1.53 in series [3] (PBMC). For the same compound, the “effect on assembly of HIV-1 CA in vitro” value at HIV-1 CA is listed as “prevents the assembly of the capsid; also recorded: prevented assembly of CA in vitro; also recorded: preventing the assembly of the capsid”. Moreover, the “activity against RSV” value in the series with RSV (CPE assay, up to 100 μM) was “no inhibitory effects”. The CC50 in the series “in vitro” is greater than 100 µM. For the same compound, the “activity in the single-round infection assay” value in series [4] (Cf2Th-CCR5 cells, YU-2 envelope) is reported as “retained the activity of the parental molecule; also recorded: retained all of the inhibitory capability of the parental compound”.

The values above are taken from patent publication US20130165489A1, “Small Molecule Modulators of HIV-1 Capsid Stability and Methods Thereof” (The Trustees of the University of Pennsylvania, priority 2010, published 2013).
